Our source for the IC50 and EC50 values is patent US11498896B2 (The Broad Institute, Inc., priority 2014, dated 2022).

Experiment [1] has as its target T1, human D2R/β-arrestin (Homo sapiens (Human), UniProt P14416). The experiment can be described thus: cell-based. Conditions: cAMP Antagonist, CHO-K1 cells expressing human D2R/β-arrestin; antagonist mode, 2.5 μM forskolin and 2.7 nM quinpirole.
Experiment [2] deals with T1, human D2R/β-arrestin. Nature of the experiment: β-arrestin agonist assay (PathHunter). It counts as cell-based. Conditions: CHO-K1 cells expressing human D2R/β-arrestin; agonist mode. Here is the method: The detection reagent (9.6 μL, Buffer:Emerald II:Galactor-Star in a 19:5:1 ratio, i.e., 14.06 mL:3.7 mL:0.74 mL=18.5 mL) was then added to the agonist plates.
Experiment [3] deals with T1, human D2R/β-arrestin. Nature of the experiment: Gi/cAMP agonist assay (Lance Ultra cAMP, forskolin). Conditions: CHO-K1 cells expressing human D2R/β-arrestin; agonist mode, 2.5 μM forskolin. It counts as cell-based. Here is the method:
Eu-cAMP tracer solution (10 μl, PerkinElmer, 360 μl of Tracer in 17.64 ml kit buffer) and ULight-anti-cAMP solution (10 μl, 120 μL antibody in 17.88 ml kit buffer) was then added to each well.

Experiment [4] concerns the target T1, human D2R/β-arrestin. Nature of the experiment: cell-based. Particulars: β-arrestin Antagonist, CHO-K1 cells expressing human D2R/β-arrestin; antagonist mode, quinpirole 130 nM.

Where only a bound is given, the exact number is not on record here.

T1 sequence (P14416 whole entry): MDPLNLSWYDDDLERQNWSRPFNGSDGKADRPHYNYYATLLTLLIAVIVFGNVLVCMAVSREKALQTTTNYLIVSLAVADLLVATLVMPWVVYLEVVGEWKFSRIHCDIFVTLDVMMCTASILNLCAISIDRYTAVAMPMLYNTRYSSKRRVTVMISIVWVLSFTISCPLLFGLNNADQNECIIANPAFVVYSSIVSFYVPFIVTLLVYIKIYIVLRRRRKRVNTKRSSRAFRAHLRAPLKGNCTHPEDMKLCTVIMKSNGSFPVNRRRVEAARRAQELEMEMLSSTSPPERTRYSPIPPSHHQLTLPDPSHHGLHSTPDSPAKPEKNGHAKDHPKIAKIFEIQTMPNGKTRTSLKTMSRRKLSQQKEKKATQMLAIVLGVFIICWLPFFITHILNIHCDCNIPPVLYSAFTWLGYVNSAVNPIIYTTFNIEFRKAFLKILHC

`CC1(Oc2ccc(Cl)cc2)CCN(CCOc2ccc(S(C)(=O)=O)cc2)CC1` [Compound 152, 4-(4-chlorophenoxy)-4-methyl-1-(2-(4-(methylsulfonyl)phenoxy)ethyl)piperidine]: the IC50 against human D2R/β-arrestin [1] and at human D2R/β-arrestin [4] was 10 to 30 µM each time. Moreover, the figures for the EC50 at human D2R/β-arrestin [2] and at human D2R/β-arrestin [3] were > 30 µM and 10 to 30 µM, respectively.
With `CC(=O)c1ccc(OCCN2CCC(C)(Oc3ccc(Cl)cc3)CC2)cc1` [Compound 153, 1-(4-(2-(4-(4-chlorophenoxy)-4-methylpiperidin-1-yl)ethoxy)phenyl)ethanone], the IC50 at human D2R/β-arrestin [1] and against human D2R/β-arrestin [4] was 1 to 10 µM each time. Further, the EC50 on human D2R/β-arrestin [2] and at human D2R/β-arrestin [3] was > 30 µM each time.
Regarding `CC(O)c1ccc(OCCN2CCC(C)(Oc3ccc(Cl)cc3)CC2)cc1` (centres unmarked) [Compound 154, 1-(4-(2-(4-(4-chlorophenoxy)-4-methylpiperidin-1-yl)ethoxy)phenyl)ethanol], the IC50 fell in the range of 0.1 to 1 µM at human D2R/β-arrestin [1] and 10 to 30 µM on human D2R/β-arrestin [4]. Also, the concentration for a half-maximal effect (EC50) on human D2R/β-arrestin [2] and at human D2R/β-arrestin [3] was > 30 µM throughout.
As for `CC1(Oc2ccc(Cl)cc2)CCN(CCOc2ccc(C(C)(C)O)cc2)CC1` [Compound 155, 2-(4-(2-(4-(4-chlorophenoxy)-4-methylpiperidin-1-yl)ethoxy)phenyl)propan-2-ol], the IC50 at human D2R/β-arrestin [1] and at human D2R/β-arrestin [4] was 1 to 10 µM throughout. The EC50 at human D2R/β-arrestin [2] and at human D2R/β-arrestin [3] was > 30 µM throughout.
For `CC1(Oc2ccc(Cl)cc2)CCN(CCOc2cccc(F)c2C(F)(F)F)CC1` [Compound 156, 4-(4-chlorophenoxy)-1-(2-(3-fluoro-2-(trifluoromethyl)phenoxy)ethyl)-4-methylpiperidine], the concentration for half-maximal inhibition (IC50) against human D2R/β-arrestin [1] and on human D2R/β-arrestin [4] was > 30 µM each time. Further, the EC50 on human D2R/β-arrestin [2] is 0.1 to 1 µM; at human D2R/β-arrestin [3], < 0.1 µM.
In the case of `CC1(Oc2ccc(Cl)cc2)CCN(CCOc2ccc(F)cc2S(C)(=O)=O)CC1` [Compound 158, 4-(4-chlorophenoxy)-1-(2-(4-fluoro-2-(methylsulfonyl)phenoxy)ethyl)-4-methylpiperidine], the IC50 was 0.1 to 1 µM against human D2R/β-arrestin [1] and 1 to 10 µM against human D2R/β-arrestin [4]. For the same molecule, the EC50 on human D2R/β-arrestin [2] was > 30 µM; at human D2R/β-arrestin [3] it was 0.1 to 1 µM.
Turning to `COc1ccc(F)cc1OCCN1CCC(C)(Oc2ccc(Cl)cc2)CC1` [Compound 159, 4-(4-chlorophenoxy)-1-(2-(5-fluoro-2-methoxyphenoxy)ethyl)-4-methylpiperidine], the IC50 on human D2R/β-arrestin [1] is 1 to 10 µM; against human D2R/β-arrestin [4], 0.1 to 1 µM. The EC50 at human D2R/β-arrestin [2] is > 30 µM; on human D2R/β-arrestin [3] it was < 0.1 µM.
For `COc1cc(F)ccc1OCCN1CCC(C)(Oc2ccc(Cl)cc2)CC1` [Compound 160, 4-(4-chlorophenoxy)-1-(2-(4-fluoro-2-methoxyphenoxy)ethyl)-4-methyl piperidine], in that order: 0.1 to 1 µM, 1 to 10 µM, > 30 µM and > 30 µM.
For `CC1(Oc2ccc(Cl)cc2)CCN(CCOc2cncs2)CC1` [Compound 161, 5-(2-(4-(4-chlorophenoxy)-4-methylpiperidin-1-yl)ethoxy)thiazole], in that order: > 30 µM, 10 to 30 µM, 0.1 to 1 µM and < 0.1 µM.
For `CC1(Oc2ccc(Cl)cc2)CCN(CCOc2ncccc2C(F)(F)F)CC1` [Compound 162, 2-(2-(4-(4-chlorophenoxy)-4-methylpiperidin-1-yl)ethoxy)-3-(trifluoromethyl)pyridine], in that order: < 0.1 µM, 0.1 to 1 µM, > 30 µM and 1 to 10 µM.
Turning to `CC1(Oc2ccc(Cl)cc2)CCN(CCOc2cccnc2C(F)(F)F)CC1` [Compound 163, 3-(2-(4-(4-chlorophenoxy)-4-methylpiperidin-1-yl)ethoxy)-2-(trifluoromethyl)pyridine], the IC50 at human D2R/β-arrestin [1] and against human D2R/β-arrestin [4] was > 30 µM throughout. Further, the EC50 at human D2R/β-arrestin [2] was 1 to 10 µM; on human D2R/β-arrestin [3] it was < 0.1 µM.
In the case of `CC1(Oc2ccc(Cl)cc2)CCN(CCOc2cc(Cl)ccc2C(F)(F)F)CC1` [Compound 165, 1-(2-(5-chloro-2-(trifluoromethyl)phenoxy)ethyl)-4-(4-chlorophenoxy)-4-methylpiperidine], the values for the IC50 against human D2R/β-arrestin [1] and on human D2R/β-arrestin [4] were > 30 µM and 1 to 10 µM, respectively. For the same molecule, the EC50 lay within 10 to 30 µM at human D2R/β-arrestin [2] and 1 to 10 µM at human D2R/β-arrestin [3].
Regarding `CC1(Oc2ccc(Cl)cc2)CCN(CCOc2ccc3c(c2)NC(=O)CC3)CC1` [Compound 166, 7-(2-(4-(4-chlorophenoxy)-4-methylpiperidin-1-yl)ethoxy)-3,4-dihydroquinolin-2(1H)-one], the IC50 against human D2R/β-arrestin [1] and on human D2R/β-arrestin [4] was 1 to 10 µM each time. For the same molecule, the EC50 was > 30 µM on human D2R/β-arrestin [2] and 1 to 10 µM on human D2R/β-arrestin [3].
With `CC1(Oc2ccc(Cl)cc2)CCN(CCOc2ccncc2C(F)(F)F)CC1` [Compound 167, 4-(2-(4-(4-chlorophenoxy)-4-methylpiperidin-1-yl)ethoxy)-3-(trifluoromethyl)pyridine], the IC50 on human D2R/β-arrestin [1] and at human D2R/β-arrestin [4] was 1 to 10 µM in each case. The EC50 on human D2R/β-arrestin [2] was > 30 µM; at human D2R/β-arrestin [3], 1 to 10 µM.
Take `CC1(Oc2ccc(Cl)cc2)CCN(CCNc2ccccc2C(F)(F)F)CC1` [Compound 168, N-(2-(4-(4-chlorophenoxy)-4-methylpiperidin-1-yl)ethyl)-2-(trifluoromethyl) aniline]: the IC50 against human D2R/β-arrestin [1] and at human D2R/β-arrestin [4] was 1 to 10 µM each time. Moreover, the 50% effective concentration (EC50) at human D2R/β-arrestin [2] and at human D2R/β-arrestin [3] was > 30 µM in each case.
As to `CN(CCN1CCC(C)(Oc2ccc(Cl)cc2)CC1)c1ccccc1C(F)(F)F` [Compound 169, N-(2-(4-(4-chlorophenoxy)-4-methylpiperidin-1-yl)ethyl)-N-methyl-2-(trifluoromethyl)aniline], the IC50 on human D2R/β-arrestin [1] lay within 0.1 to 1 µM; on human D2R/β-arrestin [4] it was 1 to 10 µM. For the same molecule, the EC50 on human D2R/β-arrestin [2] and at human D2R/β-arrestin [3] was > 30 µM each time.
In the case of `CC(=O)N(CCN1CCC(C)(Oc2ccc(Cl)cc2)CC1)c1ccccc1C(F)(F)F` [Compound 170, N-(2-(4-(4-chlorophenoxy)-4-methylpiperidin-1-yl)ethyl)-N-(2-(trifluoromethyl)phenyl)acetamide], the IC50 at human D2R/β-arrestin [1] and on human D2R/β-arrestin [4] was > 30 µM in each case. The EC50 at human D2R/β-arrestin [2] and on human D2R/β-arrestin [3] was > 30 µM each time.
In the case of `CC1(Oc2ccc(Cl)cc2)CCN(CCOc2ccc3cccc(C(F)(F)F)c3n2)CC1` [Compound 171, 2-(2-(4-(4-chlorophenoxy)-4-methylpiperidin-1-yl)ethoxy)-8-(trifluoromethyl)quinoline], the IC50 against human D2R/β-arrestin [1] and against human D2R/β-arrestin [4] was > 30 µM throughout. The EC50 at human D2R/β-arrestin [2] is > 30 µM; at human D2R/β-arrestin [3], 0.1 to 1 µM.
`CC1(Oc2ccc(Cl)cc2)CCN(CCn2c(=O)ccc3cccc(C(F)(F)F)c32)CC1` [Compound 172, 1-(2-(4-(4-chlorophenoxy)-4-methylpiperidin-1-yl)ethyl)-8-(trifluoromethyl)quinolin-2(1H)-one]: the half-maximal inhibitory concentration (IC50) at human D2R/β-arrestin [1] and at human D2R/β-arrestin [4] was > 30 µM throughout. The values for the EC50 at human D2R/β-arrestin [2] and at human D2R/β-arrestin [3] were > 30 µM and 1 to 10 µM, respectively.
With `CC1(Oc2ccccc2)CCN(CCOc2ccncc2)CC1` [Compound 173, 4-(2-(4-methyl-4-phenoxypiperidin-1-yl)ethoxy)pyridine], the IC50 against human D2R/β-arrestin [1] and against human D2R/β-arrestin [4] was > 30 µM in each case. In addition, the values for the EC50 at human D2R/β-arrestin [2] and on human D2R/β-arrestin [3] were 1 to 10 µM and 0.1 to 1 µM, respectively.
`CC1(Oc2ccccc2)CCN(CCOc2ccccn2)CC1` [Compound 174, 2-(2-(4-methyl-4-phenoxypiperidin-1-yl)ethoxy)pyridine]: the concentration for half-maximal inhibition (IC50) against human D2R/β-arrestin [1] and on human D2R/β-arrestin [4] was > 30 µM throughout. For the same molecule, the EC50 is 0.1 to 1 µM on human D2R/β-arrestin [2] and < 0.1 µM at human D2R/β-arrestin [3].
On to `CC1(Oc2ccccc2)CCN(CCOc2cccc3[nH]ccc23)CC1` [Compound 175, 4-(2-(4-methyl-4-phenoxypiperidin-1-yl)ethoxy)-1H-indole], for which the IC50 is > 30 µM against human D2R/β-arrestin [1] and < 0.1 µM at human D2R/β-arrestin [4]. Moreover, the EC50 at human D2R/β-arrestin [2] is 0.1 to 1 µM; on human D2R/β-arrestin [3], < 0.1 µM.
On to `CC(C)C1(O)CCN(CCOc2ccccc2C(F)(F)F)CC1` [Compound 176, 4-isopropyl-1-(2-(2-(trifluoromethyl)phenoxy)ethyl)piperidin-4-ol], for which the figures for the IC50 against human D2R/β-arrestin [1] and at human D2R/β-arrestin [4] were < 0.1 µM and 0.1 to 1 µM, respectively. Besides, the EC50 at human D2R/β-arrestin [2] and on human D2R/β-arrestin [3] was > 30 µM in each case.
Turning to `CC1(O)CCN(C2CCCN(c3ccccc3C(F)(F)F)C2)CC1` (centres unmarked) [Compound 177, 4-methyl-1′-(2-(trifluoromethyl)phenyl)-[1,3′-bipiperidin]-4-ol], the IC50 on human D2R/β-arrestin [1] and on human D2R/β-arrestin [4] was 1 to 10 µM each time. Moreover, the EC50 on human D2R/β-arrestin [2] and on human D2R/β-arrestin [3] was > 30 µM in each case.
As to `Clc1ccc(N2CCCC23CCN(CC2COc4ccccc4O2)CC3)cc1` (centres unmarked) [Compound 178, 1-(4-chlorophenyl)-8-((2,3-dihydrobenzo[b][1,4]dioxin-2-yl)methyl)-1,8-diazaspiro[4.5]decane], the IC50 against human D2R/β-arrestin [1] and against human D2R/β-arrestin [4] was < 0.1 µM in each case. The EC50 on human D2R/β-arrestin [2] and on human D2R/β-arrestin [3] was > 30 µM each time.
For the molecule `FC(F)(F)c1ccccc1OCCN1CCC2(CC1)Cc1ccccc1O2` [Compound 179, 1′-(2-(2-(trifluoromethyl)phenoxy)ethyl)-3H-spiro[benzofuran-2,4′-piperidine]], the IC50 against human D2R/β-arrestin [1] was in the range of 0.1 to 1 µM; against human D2R/β-arrestin [4], 1 to 10 µM. Moreover, the EC50 at human D2R/β-arrestin [2] and at human D2R/β-arrestin [3] was > 30 µM in each case.

As a reminder, the IC50 is the concentration needed to halve the response being measured. The term EC50 denotes the concentration needed to bring the measured effect to its halfway point. Low readings indicate a more potent agent, high ones a less potent agent.
